Measured values published in patent US12655116B2, “Substituted isophthalic acid diamides” (Bayer Aktiengesellschaft, priority 2020, dated 2026).

Experiments:
SETVI [1] = assay: Pre-emergence herbicidal action against SETVI; type: in vivo, Setaria viridis
In short: (§1)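 Pre-emergence soil-surface spray of formulated compound (WP or EC; 600 to 800 l/ha; 0.2% wetting agent) over seeds sown in sandy loam. After 3 weeks under greenhouse conditions, damage is estimated visually in percent against untreated plants.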

DIGSA [2] = assay: Pre-emergence herbicidal action against DIGSA; type: in vivo, Digitaria sanguinalis
In short: as §1

VIOTR [3] = assay: Pre-emergence herbicidal action against VIOTR; type: in vivo, Viola tricolor
In short: as §1

VIOTR [4] = assay: Post-emergence herbicidal action against VIOTR; type: in vivo, Viola tricolor; settings: 20 g/ha
Protocol: (§2) Seeds of monocotyledonous and dicotyledonous weed and crop plants are laid out in sandy loam soil in wood-fiber pots, covered with soil and cultivated in a greenhouse under good growth conditions. 2 to 3 weeks after sowing, the test plants are treated at the one-leaf stage. The compounds of the invention, formulated in the form of wettable powders (WP) or as emulsion concentrates (EC), are then sprayed onto the green parts of the plants in the form of an aqueous suspension or emulsion at a water application rate equivalent to 600 to 800 l/ha, with addition of 0.2% wetting agent. After the test plants have been left to stand in the greenhouse under optimal growth conditions for about 3 weeks, the action of the preparations is assessed visually in comparison to untreated controls (herbicidal action in percent (%): 100% activity=the plants have died, 0% activity=like control plants). […] The tables below illustrate, in an illustrative manner, the post-emergence herbicidal action of the compounds of the invention, the herbicidal activity being stated in percent.

ECHCG [5] = assay: Pre-emergence herbicidal action against ECHCG; type: in vivo, Echinochloa crus-galli
In short: as §1

PHBPU = assay: Post-emergence herbicidal action against PHBPU; type: in vivo, Pharbitis purpurea
In short: (§3)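 Greenhouse plants in sandy loam were sprayed at the one-leaf stage, 2 to 3 weeks after sowing, with WP or EC formulations as aqueous suspension or emulsion (600 to 800 l/ha water, 0.2% wetting agent). Visual damage was scored about 3 weeks later versus untreated controls, 0% = like control, 100% = dead.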

VERPE [6] = assay: Post-emergence herbicidal action against VERPE; type: in vivo, Veronica persica; settings: 20 g/ha
Protocol: as §2

AMARE [7] = assay: Pre-emergence herbicidal action against AMARE; type: in vivo, Amaranthus retroflexus
In short: as §1

MATIN [8] = assay: Pre-emergence herbicidal action against MATIN; type: in vivo, Matricaria inodora
In short: as §1

ALOMY [9] = assay: Pre-emergence herbicidal action against ALOMY; type: in vivo, Alopecurus myosuroides; settings: 80 g/ha, pre-emergence, scored visually after 3 weeks vs untreated controls (100% = plants have died, 0% = like control plants)
In short: as §1

ECHCG [10] = assay: Post-emergence herbicidal action against ECHCG; type: in vivo, Echinochloa crus-galli
In short: as §3

ABUTH [11] = assay: Pre-emergence herbicidal action against ABUTH; type: in vivo, Abutilon theophrasti; settings: for Pre-emergence action against ABUTH (herbicidal activity): 80 g/ha, scored visually after 3 weeks vs untreated controls (100% = plants have died, 0% = like control plants); for Pre-emergence action against ABUTH (herbicidal activity in percent): dosage 20 g/ha, scored visually after 3 weeks vs untreated controls, 100% = plants have died, 0% = like control plants
In short: as §1

ALOMY [12] = assay: Post-emergence herbicidal action against ALOMY; type: in vivo, Alopecurus myosuroides; settings: dosage 20 g/ha, visual assessment about 3 weeks after treatment vs untreated controls
Protocol: as §2

AMARE [13] = assay: Post-emergence herbicidal action against AMARE; type: in vivo, Amaranthus retroflexus; settings: 20 g/ha, visual assessment about 3 weeks after treatment, 100% = plants have died, 0% = like control plants
In short: as §3

ABUTH [14] = assay: Post-emergence herbicidal action against ABUTH; type: in vivo, Abutilon theophrasti; settings: visual assessment about 3 weeks after treatment vs untreated controls
In short: as §3

VERPE [15] = assay: Pre-emergence herbicidal action against VERPE; type: in vivo, Veronica persica; settings: dosage 80 g/ha
Description: (§4) Seeds of monocotyledonous and dicotyledonous weed plants and crop plants are laid out in sandy loam soil in wood-fiber pots and covered with soil. The compounds of the invention, formulated in the form of wettable powders (WP) or as emulsion concentrates (EC), are then applied to the surface of the covering soil in the form of an aqueous suspension or emulsion at a water application rate equivalent to 600 to 800 l/ha, with addition of 0.2% wetting agent. After the treatment, the pots are placed in a greenhouse and kept under good growth conditions for the trial plants. The damage to the test plants is scored visually after a test period of 3 weeks by comparison with untreated controls (herbicidal activity in percent (%): 100% activity=the plants have died, 0% activity=like control plants). […] The tables below illustrate, in an illustrative manner, the post-emergence herbicidal action of the compounds of the invention, the herbicidal activity being stated in percent.

SETVI [16] = assay: Post-emergence herbicidal action against SETVI; type: in vivo, Setaria viridis; settings: dosage 20 g/ha
In short: as §3

AVEFA = assay: Pre-emergence herbicidal action against AVEFA; type: in vivo, Avena fatua; settings: 80 g/ha, pre-emergence
Description: as §4

MATIN [17] = assay: Post-emergence herbicidal action against MATIN; type: in vivo, Matricaria inodora; settings: dosage 20 g/ha
Protocol: as §2

DIGSA [18] = assay: Post-emergence herbicidal action against DIGSA; type: in vivo, Digitaria sanguinalis; settings: for Post-emergence action against DIGSA: 20 g/ha
Protocol: as §2

[19] = 20 g/ha, scored visually after 3 weeks vs untreated controls, 100% = plants have died, 0% = like control plants
[20] = 80 g/ha, scored visually after 3 weeks vs untreated controls (100% = plants have died, 0% = like control plants)

| SMILES | Pre-emergence action against SETVI in % (SETVI [1]; dosage 80 g/ha) | Pre-emergence action against DIGSA in % (DIGSA [2]; dosage 80 g/ha) | Pre-emergence action against VIOTR in % (VIOTR [3]; dosage 80 g/ha) | Pre-emergence action against ECHCG in % (ECHCG [5]; 80 g/ha) | Post-emergence action against PHBPU in % (PHBPU; dosage 20 g/ha) | Post-emergence action against VERPE in % (VERPE [6]) | Pre-emergence action against AMARE in % (AMARE [7]; [19]) | Pre-emergence action against AMARE in % (AMARE [7]; [20]) | Pre-emergence action against MATIN in % (MATIN [8]; dosage 80 g/ha) | Pre-emergence action against ALOMY (herbicidal activity) (ALOMY [9]) | Post-emergence action against ECHCG in % (ECHCG [10]; dosage 20 g/ha) | Pre-emergence action against ABUTH (herbicidal activity) (ABUTH [11]) | Post-emergence action against ALOMY in % (ALOMY [12]) | Post-emergence action at 20 g/ha against AMARE in % (AMARE [13]) | Pre-emergence action against ABUTH (herbicidal activity in percent) (ABUTH [11]) | Pre-emergence action against MATIN in % (MATIN [8]; dosage 20 g/ha) | Post-emergence action against ABUTH in % (ABUTH [14]; dosage 20 g/ha) | Post-emergence action against SETVI in % (SETVI [16]) | Post-emergence action against MATIN in % (MATIN [17]) | other results |
| --- | --- | --- | --- | --- | --- | --- | --- | --- | --- | --- | --- | --- | --- | --- | --- | --- | --- | --- | --- | --- |
| Cc1c(C(=O)Nc2nnnn2C)ccc(C(F)(F)F)c1C(=O)NCC1CCCO1 (centres unmarked) [Example 1-37] | 100% | 100% | 100% | 80% | 80% | 80% | 100% | 100% | 90% | 100% | 80% | – | – | – | – | – | – | – | – | Pre-emergence action against SETVI in % (SETVI [1]; dosage 20 g/ha): 90%; Pre-emergence action against DIGSA in % (DIGSA [2]; dosage 20 g/ha): 80%; Post-emergence action against VIOTR in % (VIOTR [4]): 80%; Post-emergence action against ECHCG in % (ECHCG [10]; dosage 5 g/ha): 80% |
| CN(C)C(=O)CNC(=O)c1c(C(F)F)ccc(C(=O)Nc2nnnn2C)c1Cl [Example 1-160] | – | – | 80% | – | – | – | 100% | 100% | 80% | – | – | 80% | 80% | 100% | – | – | – | – | – | – |
| CCn1nnnc1NC(=O)c1ccc(C(F)(F)F)c(C(=O)NCC#N)c1C [Example 2-36] | – | 90% | 100% | – | – | – | 100% | 100% | 90% | – | – | 100% | 90% | 90% | 90% | – | – | – | – | – |
| CCn1nnnc1NC(=O)c1ccc(C(F)(F)F)c(C(=O)NCC(=O)N(C)C)c1Cl [Example 2-142] | – | – | 100% | – | – | – | – | 100% | 100% | – | – | – | 80% | 100% | – | 80% | – | – | – | – |
| CCn1nnnc1NC(=O)c1ccc(C(F)F)c(C(=O)NCC(=O)N(C)C)c1Cl [Example 2-160] | – | – | 100% | – | – | – | 100% | 100% | 90% | – | – | 90% | 80% | 100% | – | – | 90% | – | – | Pre-emergence action against VERPE in % (VERPE [15]): 80% |
| CCn1nnnc1NC(=O)c1ccc(C(F)(F)F)c(C(=O)NCC(F)(F)F)c1Br [Example 2-211] | 100% | – | 80% | 90% | 80% | – | 100% | 100% | 100% | 90% | 80% | 100% | 80% | 90% | 100% | 90% | 80% | 90% | 80% | Post-emergence action against ABUTH in % (ABUTH [14]; dosage 5 g/ha): 80%; Post-emergence action against PHBPU in % (PHBPU; dosage 5 g/ha): 80%; Pre-emergence action against AVEFA in % (AVEFA): 80%; Post-emergence action against DIGSA (DIGSA [18]): 80% |
| CCNC(=O)c1c(OC)ccc(C(=O)Nc2nnnn2CC)c1Cl [Example 2-353] | – | – | 100% | – | 80% | 100% | 100% | 100% | 100% | 90% | – | 100% | – | 100% | – | 90% | 100% | – | 80% | Post-emergence action against ABUTH in % (ABUTH [14]; dosage 5 g/ha): 90%; Pre-emergence action against VIOTR in % (VIOTR [3]; dosage 20 g/ha): 90%; Post-emergence action against VIOTR in % (VIOTR [4]): 80%; Post-emergence action against PHBPU in % (PHBPU; dosage 5 g/ha): 80% |
| Cc1nnc(NC(=O)c2ccc(C(F)(F)F)c(C(=O)NCC3CC3)c2Br)o1 [Example 6-161] | 100% | – | 80% | 100% | 80% | – | 100% | 100% | 100% | 90% | 90% | 100% | 90% | 100% | 100% | 100% | 90% | 90% | – | Pre-emergence action against ECHCG in % (ECHCG [5]; 20 g/ha): 80%; Post-emergence action against ECHCG in % (ECHCG [10]; dosage 5 g/ha): 90% |
| Cc1nnc(NC(=O)c2ccc(C(F)(F)F)c(C(=O)NC(C)C3CC3)c2Cl)o1 (centres unmarked) [Example 6-254] | 80% | 100% | 90% | 100% | 80% | 80% | 100% | 100% | 100% | 90% | 90% | 100% | – | 100% | 100% | 80% | 80% | 80% | 80% | Pre-emergence action against DIGSA in % (DIGSA [2]; dosage 20 g/ha): 90%; Pre-emergence action against ECHCG in % (ECHCG [5]; 20 g/ha): 90%; Pre-emergence action against AVEFA in % (AVEFA): 90%; Post-emergence action against DIGSA in % (DIGSA [18]; 5 g/ha): 80%; Post-emergence action against DIGSA (DIGSA [18]): 90%; Pre-emergence action against VERPE in % (VERPE [15]): 100% |
